Source: publication PMC10145973, “Genomic Insights into Bacterial Resistance to Proline-Rich Antimicrobial Peptide Bac7” (Membranes, 2023)
Converted amounts (≈) assume the structure as drawn. “And” between values parts separate entries of the source, which are not always exact repeats. Equal entries are not always repeated. Where a SMILES comes first, the peptide text is derived from it. Bridges are numbered along the chain shown (N, C = ends).

How the values were obtained:
[1] = system: E. coli MDR 1057 WT; settings: Table 2; broth microdilution in MHB (medium ±0.9% NaCl not given), 10^6 CFU/mL suspension, agents diluted in 0.1% BSA, 24 h, 37 °C, visible turbidity; median of at least three independent experiments in triplicate
[2] = system: E. coli MDR 1057 P1; settings: Table 2; broth microdilution in MHB (medium ±0.9% NaCl not given), 0.1% BSA, 24 h, 37 °C; median of at least three independent experiments in triplicate
[3] = system: E. coli MDR 1057 B3; settings: Table 2; broth microdilution in MHB (medium ±0.9% NaCl not given), 0.1% BSA, 24 h, 37 °C; median of at least three independent experiments in triplicate
[4] = system: E. coli MDR 1057 B2; settings: Table 2; broth microdilution in MHB (medium ±0.9% NaCl not given), 0.1% BSA, 24 h, 37 °C; median of at least three independent experiments in triplicate
[5] = system: resistant Salmonella enterica strain (pmrB mutations); settings: cited from earlier work
[6] = system: extensively drug-resistant Klebsiella pneumoniae isolate; set-up: method as in PMID 30445429; settings: serially passaged in the presence of the agent; cited from earlier work
[7] = system: E. coli MDR 1057 WT; assay: microbe, parasite or virus in culture; settings: Escherichia coli, MDR1057WT, 24 h, read-out: Minimum Inhibitory Concentration, WT
[8] = system: E. coli MDR 1057 B3; assay: microbe, parasite or virus in culture; settings: Escherichia coli, MDR1057B3, 24 h, read-out: Minimum Inhibitory Concentration, B3
[9] = system: E. coli MDR 1057 P1; assay: microbe, parasite or virus in culture; settings: Escherichia coli, MDR1057P1, 24 h, read-out: Minimum Inhibitory Concentration, P1
[10] = system: E. coli MDR 1057 B2; assay: microbe, parasite or virus in culture; settings: Escherichia coli, MDR1057B2, 24 h, read-out: Minimum Inhibitory Concentration, B2

CC[C@H](C)[C@H](NC(=O)[C@H](CCCCN)NC(=O)[C@H](CCC(=O)O)NC(=O)[C@H](CCCCN)NC(=O)[C@H](CO)NC(=O)[C@H](CCCCN)NC(=O)[C@H](CCCNC(=N)N)NC(=O)[C@H](Cc1ccccc1)NC(=O)[C@H](Cc1ccccc1)NC(=O)[C@H](CC(=O)O)NC(=O)CNC(=O)[C@H](CC(C)C)NC(=O)[C@@H](N)CC(C)C)C(=O)NCC(=O)N[C@@H](CCCCN)C(=O)N[C@@H](CCC(=O)O)C(=O)N[C@@H](Cc1ccccc1)C(=O)N[C@@H](CCCCN)C(=O)N[C@@H](CCCNC(=N)N)C(=O)N[C@H](C(=O)N[C@H](C(=O)N[C@@H](CCC(N)=O)C(=O)N[C@@H](CCCNC(=N)N)C(=O)N[C@H](C(=O)N[C@@H](CCCCN)C(=O)N[C@@H](CC(=O)O)C(=O)N[C@@H](Cc1ccccc1)C(=O)N[C@@H](CC(C)C)C(=O)N[C@@H](CCCNC(=N)N)C(=O)N[C@@H](CC(N)=O)C(=O)N[C@@H](CC(C)C)C(=O)N[C@H](C(=O)N1CCC[C@H]1C(=O)N[C@@H](CCCNC(=N)N)C(=O)N[C@H](C(=O)N[C@@H](CCC(=O)O)C(=O)N[C@@H](CO)C(=O)O)[C@@H](C)O)C(C)C)[C@@H](C)CC)C(C)C)[C@@H](C)CC [LL-37]
Minimum Inhibitory Concentration, WT [1]: 4 µM | Minimum Inhibitory Concentration, P1 [2]: 1 µM | Minimum Inhibitory Concentration, B3 [3]: 2 µM | Minimum Inhibitory Concentration, B2 [4]: 2 µM

colistin
MIC after a single pmrB mutation [5]: up to 3 µg/mL and ≤ 4 µM | increase in MIC after serial passage [6]: ≥ 1000 fold

CN[C@@H]1[C@H](O)[C@H](NC)[C@H]2O[C@@]3(O)C(=O)C[C@@H](C)O[C@H]3O[C@@H]2[C@H]1O [Spectinomycin]
MIC [7]: 32 µM (≈ 10.6 µg/mL) | MIC [8]: 32 µM (≈ 10.6 µg/mL) | MIC [9]: 64 µM (≈ 21.3 µg/mL) | MIC [10]: 32 µM (≈ 10.6 µg/mL)

CC[C@H](C)[C@H](NC(=O)[C@@H]1CCCN1C(=O)CNC(=O)[C@@H](NC(=O)[C@H](Cc1ccccc1)NC(=O)[C@@H]1CCCN1C(=O)CNC(=O)[C@@H](NC(=O)[C@H](CCCCN)NC(=O)[C@H](Cc1c[nH]cn1)NC(=O)[C@H](Cc1c[nH]c2ccccc12)NC(=O)[C@H](CC(C)C)NC(=O)[C@H](CCCNC(=N)N)NC(=O)[C@H](CCCCN)NC(=O)[C@H](CC(C)C)NC(=O)[C@H](CCCCN)NC(=O)[C@H](CCCCN)NC(=O)[C@H](CCCNC(=N)N)NC(=O)[C@H](Cc1ccccc1)NC(=O)[C@H](CCCNC(=N)N)NC(=O)[C@H](CCCCN)NC(=O)[C@H](Cc1ccccc1)NC(=O)[C@H](CCCNC(=N)N)NC(=O)CN)C(C)C)C(C)C)C(=O)N[C@@H](CC(C)C)C(=O)N[C@@H](Cc1c[nH]cn1)C(=O)N[C@@H](Cc1ccc(O)cc1)C(=O)O [ChMAP-28] (H-GRFKRFRKKLKRLWHKVGPFVGPILHY-OH)
Minimum Inhibitory Concentration, WT [1]: 0.063 µM | Minimum Inhibitory Concentration, P1 [2]: 0.063 µM | Minimum Inhibitory Concentration, B3 [3]: 0.063 µM | Minimum Inhibitory Concentration, B2 [4]: 0.063 µM

CC(C)C[C@H](NC(=O)[C@H](CCCNC(=N)N)NC(=O)[C@@H]1CCCN1C(=O)[C@@H]1CCCN1C(=O)[C@H](Cc1ccccc1)NC(=O)[C@H](Cc1ccccc1)NC(=O)[C@@H]1CCCN1C(=O)[C@@H]1CCCN1C(=O)[C@@H]1CCCN1C(=O)[C@H](CCCNC(=N)N)NC(=O)[C@@H]1CCCN1C(=O)[C@H](CCCNC(=N)N)NC(=O)[C@@H]1CCCN1C(=O)[C@H](CC(C)C)NC(=O)[C@H](Cc1ccc(O)cc1)NC(=O)[C@@H]1CCCN1C(=O)[C@@H]1CCCN1C(=O)[C@H](CCCNC(=N)N)NC(=O)[C@@H]1CCCN1C(=O)[C@H](CCCNC(=N)N)NC(=O)[C@H](CCCNC(=N)N)NC(=O)[C@@H](N)CCCNC(=N)N)C(=O)O [PR-39_1-22] (H-RRRPRPPYLPRPRPPPFFPPRL-OH)
Minimum Inhibitory Concentration, WT [1]: 2 µM | Minimum Inhibitory Concentration, P1 [2]: 16 µM | Minimum Inhibitory Concentration, B3 [3]: >32 µM | Minimum Inhibitory Concentration, B2 [4]: >32 µM

CO/N=C(\C(=O)N[C@@H]1C(=O)N2C(C(=O)O)=C(CSc3nc(=O)c(=O)[nH]n3C)CS[C@H]12)c1csc(N)n1 [Ceftriaxone]
MIC [7]: 128 µM (≈ 71 µg/mL) | MIC [8]: 128 µM (≈ 71 µg/mL) | MIC [9]: 128 µM (≈ 71 µg/mL) | MIC [10]: 128 µM (≈ 71 µg/mL)

CO[C@H]1/C=C/O[C@@]2(C)Oc3c(C)c(O)c4c(O)c(c(/C=N/N5CCN(C)CC5)c(O)c4c3C2=O)NC(=O)/C(C)=C\C=C\[C@H](C)[C@H](O)[C@@H](C)[C@@H](O)[C@@H](C)[C@H](OC(C)=O)[C@@H]1C [Rifampicin]
MIC [7]: 64 µM (≈ 52.7 µg/mL) | MIC [8]: 64 µM (≈ 52.7 µg/mL) | MIC [9]: 64 µM (≈ 52.7 µg/mL) | MIC [10]: 128 µM (≈ 105 µg/mL)

O=C(O)c1cn(C2CC2)c2cc(N3CCNCC3)c(F)cc2c1=O [Ciprofloxacin]
MIC [9]: 128 µM (≈ 42.4 µg/mL) | MIC [10]: 128 µM (≈ 42.4 µg/mL)

O=C(N[C@H](CO)[C@H](O)c1ccc([N+](=O)[O-])cc1)C(Cl)Cl [Chloramphenicol]
MIC [7]: 8 µM (≈ 2.59 µg/mL) | MIC [8]: 8 µM (≈ 2.59 µg/mL) | MIC [9]: 16 µM (≈ 5.17 µg/mL) | MIC [10]: 16 µM (≈ 5.17 µg/mL)

CNC(C)C1CCC(N)C(OC2C(N)CC(N)C(OC3OCC(C)(O)C(NC)C3O)C2O)O1 (centres unmarked) [Gentamicin]
MIC [7]: 2 µM (≈ 0.955 µg/mL) | MIC [8]: 2 µM (≈ 0.955 µg/mL) | MIC [9]: 4 µM (≈ 1.91 µg/mL) | MIC [10]: 2 µM (≈ 0.955 µg/mL)

CC[C@H]1OC(=O)[C@H](C)[C@@H](O[C@H]2C[C@@](C)(OC)[C@@H](O)[C@H](C)O2)[C@H](C)[C@@H](O[C@@H]2O[C@H](C)C[C@H](N(C)C)[C@H]2O)[C@](C)(O)C[C@@H](C)/C(=N\OCOCCOC)[C@H](C)[C@@H](O)[C@]1(C)O [Roxithromycin]
MIC [7]: 256 µM (≈ 214 µg/mL) | MIC [8]: 256 µM (≈ 214 µg/mL) | MIC [9]: > 256 µM | MIC [10]: 256 µM (≈ 214 µg/mL)

CC(C)C[C@H](NC(=O)[C@H](CCCNC(=N)N)NC(=O)CNC(=O)CNC(=O)[C@@H](N)CCCNC(=N)N)C(=O)N[C@H]1CSSC[C@@H](C(=O)N[C@H](C(=O)NCC(=O)N[C@@H](CCCNC(=N)N)C(=O)O)C(C)C)NC(=O)[C@H](C(C)C)NC(=O)[C@@H]2CSSC[C@H](NC(=O)[C@H](Cc3ccc(O)cc3)NC1=O)C(=O)N[C@@H](CCCNC(=N)N)C(=O)N[C@@H](CCCNC(=N)N)C(=O)N[C@@H](CCCNC(=N)N)C(=O)N[C@@H](Cc1ccccc1)C(=O)N2 [Protegrin-1] (H-RGGRLCYCRRRFCVCVGR-OH; disulfide 6-15, 8-13; N-terminus and C-terminus assumed)
Minimum Inhibitory Concentration, WT [1]: 0.25 µM | Minimum Inhibitory Concentration, P1 [2]: 0.25 µM | Minimum Inhibitory Concentration, B3 [3]: 0.25 µM | Minimum Inhibitory Concentration, B2 [4]: 0.25 µM

CC(C)C[C@H](NC(=O)[C@H](CCCNC(=N)N)NC(=O)[C@@H](N)CCCNC(=N)N)C(=O)N[C@@H](CCCNC(=N)N)C(=O)N1CCC[C@H]1C(=O)N[C@@H](CCCNC(=N)N)C(=O)N[C@@H](CCCNC(=N)N)C(=O)N1CCC[C@H]1C(=O)N[C@@H](CCCNC(=N)N)C(=O)N[C@@H](CC(C)C)C(=O)N1CCC[C@H]1C(=O)N[C@@H](CCCNC(=N)N)C(=O)N1CCC[C@H]1C(=O)N[C@@H](CCCNC(=N)N)C(=O)N1CCC[C@H]1C(=O)N[C@@H](CCCNC(=N)N)C(=O)N1CCC[C@H]1C(=O)N[C@@H](CCCNC(=N)N)C(=O)N1CCC[C@H]1C(=O)N[C@@H](CCCNC(=N)N)C(=O)N1CCC[C@H]1C(=O)N[C@@H](CCCNC(=N)N)C(=O)O [mini-ChBac7.5Nα] (H-RRLRPRRPRLPRPRPRPRPRPR-OH)
Minimum Inhibitory Concentration, WT [1]: 8 µM | Minimum Inhibitory Concentration, P1 [2]: >32 µM | Minimum Inhibitory Concentration, B3 [3]: >32 µM | Minimum Inhibitory Concentration, B2 [4]: >32 µM

CC1(C)S[C@@H]2[C@H](NC(=O)[C@H](N)c3ccccc3)C(=O)N2[C@H]1C(=O)O [Ampicillin]
MIC [7]: 256 µM (≈ 89.4 µg/mL) | MIC [8]: 256 µM (≈ 89.4 µg/mL) | MIC [9]: 256 µM (≈ 89.4 µg/mL) | MIC [10]: 256 µM (≈ 89.4 µg/mL)

CC(C)[C@@H]1NC(=O)[C@H](Cc2ccc(O)cc2)NC(=O)[C@H](Cc2c[nH]c3ccccc23)NC(=O)[C@@H](NC(=O)[C@H](Cc2ccccc2)NC(=O)CN)CSSC[C@@H](C(=O)N[C@@H](CC(N)=O)C(=O)O)NC(=O)[C@H](CCCNC(=N)N)NC(=O)[C@H](CCCNC(=N)N)NC(=O)[C@H](Cc2ccc(O)cc2)NC(=O)[C@@H]2CSSC[C@H](NC1=O)C(=O)N[C@@H](C)C(=O)N[C@@H](CCCNC(=N)N)C(=O)N[C@@H](CCCNC(=N)N)C(=O)N[C@@H](CC(N)=O)C(=O)NCC(=O)N[C@@H](C)C(=O)N[C@@H](CCCNC(=N)N)C(=O)N[C@@H](C(C)C)C(=O)N2 [AA139] (H-GFCWYVCARRNGARVCYRRCN-OH; disulfide 3-20, 7-16 (inferred))
Minimum Inhibitory Concentration, WT [1]: 0.25 µM | Minimum Inhibitory Concentration, P1 [2]: 0.5 µM | Minimum Inhibitory Concentration, B3 [3]: 1 µM | Minimum Inhibitory Concentration, B2 [4]: 0.25 µM
